Tested on: microtubule‐associated protein light chain 3B (LC3B)
Test: Western blot analysis of LC3B, LN229
Assay type: cell-based, human
Conditions: LN229, IC50 dose
Description: mouse microglial cell line BV‐2 was a kind gift from Dr. Irena Lavrnja, Institute for Biological Research “Siniša Stanković” (University of Belgrade). Cells were routinely cultivated in HEPES‐buffered RPMI‐ […]
FCS, 2 mM L‐glutamine, 0.01% sodium pyruvate and antibiotics, at 37 °C in a humidified atmosphere with 5% CO2. Peritoneal resident macrophages (Mph) were collected from C57BL/6 mice, obtained from the animal facility at the Institute for Biological Research “Siniša Stanković” (University of Belgrade), via peritoneal lavage with ice‐cold PBS. Cells were counted and seeded in 96‐well plates and incubated overnight, as described above. Before treatment, non‐adherent cells were removed.
Isolation of cells from animals were performed in accordance to local guidelines and approved by the local Institutional Animal Care and Use Committee (IACUC).
Staining Protocols for Flow Cytometric Analysis. For AnnV/PI, AO and ApoStat staining, cells were treated with an IC50 dose of 3 or 4 for 72 h, then detached with trypsin and washed with PBS. […] Finally, cells were washed in PBS, resuspended in PBS (or AnnV‐binding buffer for AnnV/PI), and analysed. […] Cells were then washed, trypsinised, dissolved in PBS and analysed by CyFlow® Space Partec using the PartecFloMax® software (Partec GmbH, Münster, Germany).
Staining Protocols for Fluorescence Microscopy. […]

closo ‐[3‐(η^6‐p‐Cymene)‐1‐(quinolin‐8‐yl‐acetate)‐3,1,2‐RuC2B9H10] [Compound 4]
expression of LC3B (western blot): significantly diminished

Source: PMC6973020, “Quinoline‐Conjugated Ruthenacarboranes: Toward Hybrid Drugs with a Dual Mode of Action” (Chemmedchem, 2019)
